In ChEMBL document CHEMBL3885881, “DrugMatrix”:

Species: Rattus norvegicus
Test: DrugMatrix - Regimen: Daily Repeat
Type: toxicity, organism-based, Sprague-Dawley
Design: regimen Daily Repeat, gender Male, age 6-8 weeks
Conditions: in vivo, sc, route subcutaneous, […]; for ABSOLUTE BASOPHIL / ABSOLUTE EOSINOPHIL / ABSOLUTE LYMPHOCYTE / ABSOLUTE MONOCYTE / ABSOLUTE SEGMENTED NEUTROPHIL / BASOPHIL / EOSINOPHIL / ERYTHROCYTE COUNT / HEMATOCRIT / HEMOGLOBIN / LEUKOCYTE COUNT / LYMPHOCYTE / MEAN CORPUSCULAR HEMOGLOBIN / MEAN CORPUSCULAR HEMOGLOBIN CONCENTRATION / MEAN CORPUSCULAR VOLUME / MONOCYTE / NEUTROPHIL / NUCLEATED RED BLOOD CELLS / PLATELET COUNT: tissue Blood; for ALANINE AMINOTRANSFERASE / ALBUMIN / ALKALINE PHOSPHATASE / ASPARTATE AMINOTRANSFERASE / BLOOD UREA NITROGEN / CARBON DIOXIDE / CHLORIDE / CHOLESTEROL / CREATINE PHOSPHOKINASE / CREATININE / GLUCOSE / LACTATE DEHYDROGENASE / LIPASE / PHOSPHORUS / POTASSIUM / SODIUM / TOTAL BILIRUBIN / TOTAL PROTEIN / URIC ACID: tissue Plasma
[1] = 150 mg/kg, 120 h, dose level High, time 5 day
[2] = 72 h, dose 2.8 mg/Kg, dose level Low, time 3 day
[3] = 120 h, dose 2.8 mg/Kg, dose level Low, time 5 day

SMILES: CN(Cc1ccc(C(C)(C)C)cc1)Cc1cccc2ccccc12 [BUTENAFINE]
- ABSOLUTE BASOPHIL [1]: 0 CELLS/uL
- ABSOLUTE EOSINOPHIL [1]: 60.33 CELLS/uL
- ABSOLUTE LYMPHOCYTE [1]: 7925.67 CELLS/uL
- ABSOLUTE MONOCYTE [1]: 152 CELLS/uL
- ABSOLUTE SEGMENTED NEUTROPHIL [1]: 1062 CELLS/uL
- BASOPHIL [1]: 0%
- EOSINOPHIL [1]: 1%
- ERYTHROCYTE COUNT [1]: 5.24 x10E6/uL
- HEMATOCRIT [1]: 32.57%
- HEMOGLOBIN [1]: 12.97 G/DL
- LEUKOCYTE COUNT [1]: 9.2 x10E3/uL
- LYMPHOCYTE [1]: 85.67%
- MEAN CORPUSCULAR HEMOGLOBIN [1]: 24.87 pg
- MEAN CORPUSCULAR HEMOGLOBIN CONCENTRATION [1]: 39.93 G/DL
- MEAN CORPUSCULAR VOLUME [1]: 62.17 fL
- MONOCYTE [1]: 1.33%
- NEUTROPHIL [1]: 12%
- NUCLEATED RED BLOOD CELLS [1]: 0 /100WBC
- PLATELET COUNT [1]: 984.33 x10E3/uL
- ALANINE AMINOTRANSFERASE [1]: 52 u/L
- ALBUMIN [1]: 4.67 G/DL
- ALKALINE PHOSPHATASE [1]: 373 u/L
- ASPARTATE AMINOTRANSFERASE [1]: 90 u/L
- BLOOD UREA NITROGEN [1]: 15.33 mg/dL
- CARBON DIOXIDE [1]: 31.33 mmol/L
- CHLORIDE [1]: 100.33 MEQ/L
- CHOLESTEROL [1]: 54 mg/dL
- CREATINE PHOSPHOKINASE [1]: 434 u/L
- CREATININE [1]: 0.24 mg/dL
- GLUCOSE [1]: 159.67 mg/dL
- LACTATE DEHYDROGENASE [1]: 385.67 u/L
- LIPASE [1]: 12.33 u/L
- PHOSPHORUS [1]: 15.13 mg/dL
- POTASSIUM [1]: 6.75 MEQ/L
- SODIUM [1]: 146.63 MEQ/L
- TOTAL BILIRUBIN [1]: 0.3 mg/dL
- TOTAL PROTEIN [1]: 6.5 G/DL
- URIC ACID [1]: 2.2 mg/dL
- ABSOLUTE BASOPHIL [2]: 0 CELLS/uL
- ABSOLUTE EOSINOPHIL [2]: 44.33 CELLS/uL
- ABSOLUTE LYMPHOCYTE [2]: 13110.67 CELLS/uL
- ABSOLUTE MONOCYTE [2]: 225.33 CELLS/uL
- ABSOLUTE SEGMENTED NEUTROPHIL [2]: 1586.33 CELLS/uL
- BASOPHIL [2]: 0%
- EOSINOPHIL [2]: 0.33%
- ERYTHROCYTE COUNT [2]: 5.44 x10E6/uL
- HEMATOCRIT [2]: 35.13%
- HEMOGLOBIN [2]: 13.83 G/DL
- LEUKOCYTE COUNT [2]: 14.97 x10E3/uL
- LYMPHOCYTE [2]: 87.33%
- MEAN CORPUSCULAR HEMOGLOBIN [2]: 25.4 pg
- MEAN CORPUSCULAR HEMOGLOBIN CONCENTRATION [2]: 39.37 G/DL
- MEAN CORPUSCULAR VOLUME [2]: 64.57 fL
- MONOCYTE [2]: 1.33%
- NEUTROPHIL [2]: 11%
- NUCLEATED RED BLOOD CELLS [2]: 0 /100WBC
- PLATELET COUNT [2]: 1247.33 x10E3/uL
- ALANINE AMINOTRANSFERASE [2]: 51.67 u/L
- ALBUMIN [2]: 4.23 G/DL
- ALKALINE PHOSPHATASE [2]: 485 u/L
- ASPARTATE AMINOTRANSFERASE [2]: 87 u/L
- BLOOD UREA NITROGEN [2]: 14.67 mg/dL
- CARBON DIOXIDE [2]: 28.67 mmol/L
- CHLORIDE [2]: 102 MEQ/L
- CHOLESTEROL [2]: 81 mg/dL
- CREATINE PHOSPHOKINASE [2]: 255.33 u/L
- CREATININE [2]: 0.2 mg/dL
- GLUCOSE [2]: 140.33 mg/dL
- LACTATE DEHYDROGENASE [2]: 340.33 u/L
- LIPASE [2]: 9.67 u/L
- PHOSPHORUS [2]: 12.73 mg/dL
- POTASSIUM [2]: 7.04 MEQ/L
- SODIUM [2]: 146.23 MEQ/L
- TOTAL BILIRUBIN [2]: 0.23 mg/dL
- TOTAL PROTEIN [2]: 6.03 G/DL
- URIC ACID [2]: 1.43 mg/dL
- ABSOLUTE BASOPHIL [3]: 0 CELLS/uL
- ABSOLUTE EOSINOPHIL [3]: 0 CELLS/uL
- ABSOLUTE LYMPHOCYTE [3]: 12003.67 CELLS/uL
- ABSOLUTE MONOCYTE [3]: 90 CELLS/uL
- ABSOLUTE SEGMENTED NEUTROPHIL [3]: 1073 CELLS/uL
- BASOPHIL [3]: 0%
- EOSINOPHIL [3]: 0%
- ERYTHROCYTE COUNT [3]: 5.4 x10E6/uL
- HEMATOCRIT [3]: 34.57%
- HEMOGLOBIN [3]: 13.8 G/DL
- LEUKOCYTE COUNT [3]: 13.17 x10E3/uL
- LYMPHOCYTE [3]: 91%
- MEAN CORPUSCULAR HEMOGLOBIN [3]: 25.6 pg
- MEAN CORPUSCULAR HEMOGLOBIN CONCENTRATION [3]: 39.97 G/DL
- MEAN CORPUSCULAR VOLUME [3]: 64 fL
- MONOCYTE [3]: 0.67%
- NEUTROPHIL [3]: 8.33%
- NUCLEATED RED BLOOD CELLS [3]: 0 /100WBC
- PLATELET COUNT [3]: 1261 x10E3/uL
- ALANINE AMINOTRANSFERASE [3]: 42.67 u/L
- ALBUMIN [3]: 4.27 G/DL
- ALKALINE PHOSPHATASE [3]: 339.33 u/L
- ASPARTATE AMINOTRANSFERASE [3]: 85.33 u/L
- BLOOD UREA NITROGEN [3]: 16.67 mg/dL
- CARBON DIOXIDE [3]: 32.67 mmol/L
- CHLORIDE [3]: 104.67 MEQ/L
- CHOLESTEROL [3]: 68.33 mg/dL
- CREATINE PHOSPHOKINASE [3]: 102 u/L
- CREATININE [3]: 0.21 mg/dL
- GLUCOSE [3]: 147.67 mg/dL
- LACTATE DEHYDROGENASE [3]: 96.33 u/L
- LIPASE [3]: 8.67 u/L
- PHOSPHORUS [3]: 14.27 mg/dL
- POTASSIUM [3]: 7.04 MEQ/L
- SODIUM [3]: 150.5 MEQ/L
- TOTAL BILIRUBIN [3]: 0.2 mg/dL
- TOTAL PROTEIN [3]: 6.33 G/DL
- URIC ACID [3]: 1.7 mg/dL
